According to patent US12257367B2, “Biomaterials for biological tissue repair” (KONAN GAKUEN, priority 2019, dated 2025):

Tests used:
C2C12 cells = test: Azide modification of cell surface by sugar metabolism of Ac4ManNAz, detected with carboxyrhodamine 110 DBCO; format: cell-based, mouse
Experimental: C2C12 cells were cultured in a DMEM medium containing 100 μM of Ac4ManNAz for 3 days to allow biosynthesis of azide-modified sialic acid at the end of the glycan of the cell membrane protein via cell sugar metabolism reaction of Ac4ManNAz. The cultured cells were washed with PBS twice. To confirm whether an azide group was introduced, carboxyrhodamine 110 DBCO (final concentration 5 μM) was added to the medium and allowed to react in the CO2 incubator for an hour. Subsequently, the cells were washed with PBS twice, to which a live cell imaging buffer (composition of the solution: 140 mM NaCl, 2.5 mM KCl, 1.8 mM CaCl2), 1.0 mM MgCl2 and 20 mM HEPES pH 7.4) was added to observe the cells with a confocal microscope.

[1] = tested on: mouse tissues (lung, cardiac muscle, skeletal muscle, kidney); test: Azide modification of mouse tissues by Ac4ManNAz administration and hydrogel fabrication using biological tissue; format: in vivo; settings: intraperitoneal once a day for seven days
Experimental: 6 mg of Ac4ManNAz was dissolved in a mixed solvent of DMSO and PBS solution (58% DMSO) to prepare a Ac4ManNAz solution. 200 μL of the resulting Ac4ManNAz solution was intraperitoneally administered to a mouse (ICR, 5 weeks old, female) once a day for seven consecutive days for azide-modification of the mouse tissues. A week later, lung, cardiac muscle, skeletal muscle and kidney of the mouse were resected. The resected tissues were allowed to react with 100 μM of carboxyrhodamine 110 DBCO for an hour, then added with a PBS solution, vortexed and left to stand still for 10 minutes. This operation was repeated for 3 times. As control, tissues resected from a mouse that was not administered with the Ac4ManNAz solution were allowed to react with carboxyrhodamine 110 DBCO for an hour. […] In order to carry out gelation reaction using mouse tissues, the Ac4ManNAz solution was administered to a mouse in the same manner as described above and lung, brain, muscle tissue, kidney, heart and liver were resected from the mouse.

[2] = tested on: mouse myoblasts (C2C12 cells); test: Cytotoxicity test of Ac4ManNAz by WST-1 assay; format: cell-based
Experimental: In order to examine the cytotoxicity of the synthesized Ac4ManNAz, mouse myoblasts (C2C12 cells) were used to evaluate toxicity to cells by WST-1 assay. The cells were seeded in a 96-well plate at 1×10^4 cells/well, to which a predetermined amount of Ac4ManNAz dissolved in a DMEM medium (final concentrations of 0, 0.0001, 0.001, 0.01, 0.1 and 1 mM) was added to culture the resultant in a CO2 incubator at 37° C. for one day. To each well, 10 μL of a WST-1 solution (WST-1:1-Methoxy PMS=9:1) was added to allow reaction in the CO2 incubator for 2 hours. Thereafter, absorbance was determined with a microplate reader. Cell viability was calculated from the absorbance.

In the case of `CC(=O)OC[C@H]1OC(OC(C)=O)[C@@H](NC(=O)CN=[N+]=[N-])[C@@H](OC(C)=O)[C@@H]1OC(C)=O` (some centres unmarked) [Ac4ManNAz], the “carboxyrhodamine 110-derived green fluorescence of cells” value (C2C12 cells; C2C12 cells cultured with 100 μM for 3 days, confocal microscope) is reported as “strong green fluorescence was observed only on the surface of the cell membrane”, the “concentration that allows a maximum amount of azide groups to be introduced into the cell surface (fluorescence intensity plateau)” value (C2C12 cells; C2C12 cells, carboxyrhodamine 110 DBCO) is reported as 100 µM and the “azide modification of tissues in living body (FITC-derived green fluorescence after bAlg-DBCO-FITC)” value [1] is reported as “green fluorescence was observed in all of the tissues”. For the same compound, the “amount applicable without having toxicity to cells” value ([2]; WST-1) was 5 to 100 µM and the cell viability ([2]; WST-1, all concentrations (0-1 mM), one day) was at least 90%.
